Experimental findings from patent US20100227859A1, “TRICYCLIC COMPOUNDS AS MATRIX METALLOPROTEINASE INHIBITORS” (priority 2007, published 2010) are described below.

The test deals with purified human MMP-12 enzyme (Homo sapiens, UniProt P39900). The test is described as follows: MMP-12 FRET assay. Conditions: substrate 20 μM, room temperature. In kind it is biochemical. In a few lines: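 Enzyme pre-incubated 30 min at room temperature with compound in 50 mM HEPES pH 7.4, 100 mM NaCl, 5 mM CaCl2, 0.005% Brij-35, 10% DMSO final. Reaction started with 20 μM MCA-Pro-Leu-Gly-Leu-Dpa(DNP)-Ala-Arg, and initial cleavage rate read over 30 min (λex 325, λem 395 nm). IC50 from slope-factor inhibition fit.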
Chain of purified human MMP-12 enzyme (P39900 106-470): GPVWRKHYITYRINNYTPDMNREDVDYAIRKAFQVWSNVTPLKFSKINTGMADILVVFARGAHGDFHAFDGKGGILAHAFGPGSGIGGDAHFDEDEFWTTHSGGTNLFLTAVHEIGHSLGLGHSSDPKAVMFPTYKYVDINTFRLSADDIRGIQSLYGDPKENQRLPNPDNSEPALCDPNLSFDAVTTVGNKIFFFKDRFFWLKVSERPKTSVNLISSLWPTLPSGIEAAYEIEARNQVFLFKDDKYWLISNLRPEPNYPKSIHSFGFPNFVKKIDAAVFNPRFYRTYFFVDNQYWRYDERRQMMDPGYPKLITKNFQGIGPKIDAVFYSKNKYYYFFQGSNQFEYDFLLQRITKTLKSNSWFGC
As usually defined, the IC50 is the concentration that inhibits the measured activity by half. The low end stands for inhibition by little substance, the high end for a need for much substance. `CC(C)[C@H](NS(=O)(=O)c1ccc2c(c1)sc1ccc(-c3cc4ccccc4s3)cc12)C(=O)O` [Compound 46, (S)-2-(8-(benzo[b]thiophen-2-yl)dibenzo[b,d]thiophene-3-sulfonamido)-3-methylbutanoic acid] gave an IC50 of 0.289 µM.

`CCc1ccc(-c2ccc3oc4cc(S(=O)(=O)N[C@H](C(=O)O)C(C)C)ccc4c3c2)s1` [Compound 196, (S)-2-(8-(5-ethylthiophen-2-yl)dibenzo[b,d]furan-3-sulfonamido)-3-methylbutanoic acid] showed an IC50 of less than 0.0015 µM. Under `Cc1ccc(-c2ccc3c(c2)oc2cc(S(=O)(=O)N[C@H](C(=O)O)C(C)C)ccc23)o1` [Compound 135, (S)-3-methyl-2-(7-(5-methylfuran-2-yl)dibenzo[b,d]furan-3-sulfonamido)butanoic acid] stands less than 0.0015 µM; under `CC(C)[C@H](NS(=O)(=O)c1ccc2c(c1)oc1ccc(-c3nc4c(s3)CCCC4)cc12)C(=O)O` [Compound 307, (S)-3-methyl-2-(8-(4,5,6,7-tetrahydrobenzo[d]thiazol-2-yl)dibenzo[b,d]furan-3-sulfonamido)butanoic acid], less than 0.0015 µM; under `CC(C)[C@H](NS(=O)(=O)c1ccc2c(c1)oc1ccc(-c3ccc(-c4ccno4)s3)cc12)C(=O)O` [Compound 211, (S)-2-(8-(5-(isoxazol-5-yl)thiophen-2-yl)dibenzo[b,d]furan-3-sulfonamido)-3-methylbutanoic acid], 0.295 µM. Compound `CC(C)[C@H](NS(=O)(=O)c1ccc2c(c1)oc1ccc(-c3ccncc3)cc12)C(=O)O` [Compound 16, (S)-3-methyl-2-(8-(pyridin-4-yl)dibenzo[b,d]furan-3-sulfonamido)butanoic acid] yielded an IC50 of less than 0.0015 µM. The result for `COc1ncc(-c2ccc3c(c2)oc2ccc(S(=O)(=O)N[C@@H](C(=O)O)C(C)C)cc23)cn1` [Compound 168, (R)-2-(7-(2-methoxypyrimidin-5-yl)dibenzo[b,d]furan-2-sulfonamido)-3-methylbutanoic acid] reads 0.0015 µM. The result for `CC(C)[C@H](NS(=O)(=O)c1ccc2c(c1)oc1ccc(-c3ccc(C(C)(C)C)o3)cc12)C(=O)O` [Compound 198, (S)-2-(8-(5-tert-butylfuran-2-yl)dibenzo[b,d]furan-3-sulfonamido)-3-methylbutanoic acid] reads 0.0056 µM; that for `CC(C)[C@H](NS(=O)(=O)c1ccc2c(c1)oc1ccc(-c3nnn(C)n3)cc12)C(=O)O` [Compound 132, (S)-3-methyl-2-(8-(2-methyl-2H-tetrazol-5-yl)dibenzo[b,d]furan-3-sulfonamido)butanoic acid], 0.002 µM.

Take `Cc1nc(CC(C)C)sc1-c1ccc2c(c1)oc1ccc(S(=O)(=O)N[C@@H](C(=O)O)C(C)C)cc12` [Compound 245, (R)-2-(7-(2-isobutyl-4-methylthiazol-5-yl)dibenzo[b,d]furan-2-sulfonamido)-3-methylbutanoic acid]: it took 0.013 µM to reach half-maximal inhibition (IC50). The result for `CC(C)[C@H](NS(=O)(=O)c1ccc2c(c1)oc1cc(-c3nc4ccc(F)cc4s3)ccc12)C(=O)O` [Compound 237, (S)-2-(7-(6-fluorobenzo[d]thiazol-2-yl)dibenzo[b,d]furan-3-sulfonamido)-3-methylbutanoic acid] reads less than 0.0015 µM. The result for `Cc1cscc1-c1ccc2c(c1)oc1ccc(S(=O)(=O)N[C@@H](C(=O)O)C(C)C)cc12` [Compound 99, (R)-3-methyl-2-(7-(4-methylthiophen-3-yl)dibenzo[b,d]furan-2-sulfonamido)butanoic acid] reads 0.012 µM; that for `CC(C)[C@H](NS(=O)(=O)c1ccc2c(c1)oc1ccc(-c3nc(C(F)(F)F)c(Cl)s3)cc12)C(=O)O` [Compound 200, (S)-2-(8-(5-chloro-4-(trifluoromethyl)thiazol-2-yl)dibenzo[b,d]furan-3-sulfonamido)-3-methylbutanoic acid], less than 0.0015 µM; that for `CC(C)[C@H](NS(=O)(=O)c1ccc2c(c1)oc1cc(-c3ccc(Cl)o3)ccc12)C(=O)O` [Compound 80, (S)-2-(7-(5-chlorofuran-2-yl)dibenzo[b,d]furan-3-sulfonamido)-3-methylbutanoic acid], less than 0.0015 µM. The result for `CC(C)[C@H](NS(=O)(=O)c1ccc2c(c1)oc1ccc(-c3cnn(CCN4CCOCC4)c3)cc12)C(=O)O` [Compound 158, (S)-3-methyl-2-(8-(1-(2-morpholinoethyl)-1H-pyrazol-4-yl)dibenzo[b,d]furan-3-sulfonamido)butanoic acid] reads 0.223 µM; that for `CCCN(Cc1cnc(-c2ccc3oc4cc(S(=O)(=O)N[C@H](C(=O)O)C(C)C)ccc4c3c2)s1)CC1CC1` [Compound 213, (S)-2-(8-(5-(((cyclopropylmethyl)(propyl)amino)methyl)thiazol-2-yl)dibenzo[b,d]furan-3-sulfonamido)-3-methylbutanoic acid], 0.04 µM; that for `CCN(C#Cc1ccc2oc3cc(S(=O)(=O)N[C@H](C(=O)O)C(C)C)ccc3c2c1)CC` [Compound 39, (S)-2-(8-((diethylamino)ethynyl)dibenzo[b,d]furan-3-sulfonamido)-3-methylbutanoic acid], 0.039 µM. Take `CC(C)[C@H](NS(=O)(=O)c1ccc2c(c1)oc1ccc(-c3nc4cc(F)ccc4s3)cc12)C(=O)O` [Compound 219, (S)-2-(8-(5-fluorobenzo[d]thiazol-2-yl)dibenzo[b,d]furan-3-sulfonamido)-3-methylbutanoic acid]: the IC50 was less than 0.0015 µM. Under `CC(C)C[C@H](NS(=O)(=O)c1ccc2oc3cc(-c4noc(C(C)(C)C)n4)ccc3c2c1)C(=O)O` [Compound 279, (S)-2-(7-(5-tert-butyl-1,2,4-oxadiazol-3-yl)dibenzo[b,d]furan-2-sulfonamido)-4-methylpentanoic acid] stands 0.061 µM; under “(R)-2-(7-(5-ethyl-1,2,4-oxadiazol-3-yl)dibenzo[b,d]furan-2-sulfonamido)-3-methylbutanoic acid [Compound 140]”, 0.0038 µM. Under `Cc1cscc1-c1ccc2sc3cc(S(=O)(=O)N[C@H](C(=O)O)C(C)C)ccc3c2c1` [Compound 24, (S)-3-methyl-2-(8-(4-methylthiophen-3-yl)dibenzo[b,d]thiophene-3-sulfonamido)butanoic acid] stands 0.19 µM; under `CC(C)[C@H](NS(=O)(=O)c1ccc2c(c1)sc1ccc(-c3ccco3)cc12)C(=O)O` [Compound 53, (S)-2-(8-(furan-2-yl)dibenzo[b,d]thiophene-3-sulfonamido)-3-methylbutanoic acid], 0.043 µM. `CC(C)(NS(=O)(=O)c1ccc2oc3cc(-c4noc(C(C)(C)C)n4)ccc3c2c1)C(=O)O` [Compound 277, 2-(7-(5-tert-butyl-1,2,4-oxadiazol-3-yl)dibenzo[b,d]furan-2-sulfonamido)-2-methylpropanoic acid]: 0.13 µM corresponded to half-maximal inhibition (IC50). Under `CC(C)[C@H](NS(=O)(=O)c1ccc2c(c1)sc1cc(-c3ccccc3)ccc12)C(=O)O` [Compound 313, (S)-3-methyl-2-(7-phenyldibenzo[b,d]thiophene-3-sulfonamido)butanoic acid] stands less than 0.0015 µM; under `CC(C)[C@@H](NS(=O)(=O)c1ccc2oc3cc(-c4nc5c(F)cccc5s4)ccc3c2c1)C(=O)O` [Compound 299, (R)-2-(7-(4-fluorobenzo[d]thiazol-2-yl)dibenzo[b,d]furan-2-sulfonamido)-3-methylbutanoic acid], 0.015 µM.
